Test results: ChEMBL document CHEMBL1212738, “Phenotypic and genotypic characterization of Enterobacteriaceae with decreased susceptibility to carbapenems: results from large hospital-based surveillance studies in China” (2010)

Tests used:
Klebsiella pneumoniae [1] = test: Antimicrobial activity against carbapenem-resistant Klebsiella pneumoniae ZJ71 deficient in KPC-2, TEM-1, SHV-11, CTX-M-14, ompK35 by CLSI method; format: functional
Klebsiella pneumoniae [2] = test: Antimicrobial activity against carbapenem-resistant Klebsiella pneumoniae PU104 deficient in TEM-1, SHV-11, CTX-M-15, qnrS1, ompK35/36 by CLSI method; format: functional
Citrobacter freundii [3] = test: Antimicrobial activity against Citrobacter freundii SZ63 expressing IMP-4, qnrS1by CLSI method; format: functional
Escherichia coli [4] = test: Antimicrobial activity against carbapenem-resistant Escherichia coli PU96 deficient in TEM-1, CTX-M-14, CMY-2, ompC/F by CLSI method; format: functional
Klebsiella pneumoniae [5] = test: Antimicrobial activity against carbapenem-resistant Klebsiella pneumoniae PU105 deficient TEM-1, SHV-12, CTX-M-14, DHA-1, qnrB10/B4-like, aac(6')-Ib-cr, ompK35/36 by CLSI method; format: functional
Enterobacter cloacae [6] = test: Antimicrobial activity against carbapenem-resistant Enterobacter cloacae RJ94 deficient in IMP-4, TEM-1, CTX-M-3, ompC by CLSI method; format: functional
Escherichia coli [7] = test: Antimicrobial activity against carbapenem-resistant Escherichia coli PU60 deficient in TEM-1, CMY-2, ompC/F by CLSI method; format: functional
Klebsiella pneumoniae [8] = test: Antimicrobial activity against carbapenem-resistant Klebsiella pneumoniae ZJ68 deficient in CTX-M-15, ompK35/36 by CLSI method
Klebsiella pneumoniae [9] = test: Antimicrobial activity against carbapenem-resistant Klebsiella pneumoniae SX67 deficient in SHV-2, CTX-M-14, DHA-1, qnrB6/S1, aac(6')-Ib-cr, ompK35/36 by CLSI method; format: functional
Klebsiella pneumoniae [10] = test: Antimicrobial activity against carbapenem-resistant Klebsiella pneumoniae PU3 deficient in DHA-1, aac(6')-Ib-cr, ompK35/36 by CLSI method; format: functional
Escherichia coli [11] = test: Antimicrobial activity against Escherichia coli HX74T expressing CTX-M-3 by CLSI method; format: functional
Citrobacter freundii [12] = test: Antimicrobial activity against Citrobacter freundii SZ63T expressing IMP-4, qnrS1by CLSI method; format: functional
Escherichia coli [13] = test: Antimicrobial activity against Escherichia coli C600 transconjugant SZ62T expressing IMP-4, qnrS1by CLSI method
Klebsiella aerogenes = test: Antimicrobial activity against carbapenem-resistant Enterobacter aerogenes PU41 deficient in CTX-M-14, DHA-1, qnrS1, ompC DEc, ompF by CLSI method; format: functional
Enterobacter cloacae [14] = test: Antimicrobial activity against carbapenem-resistant Enterobacter cloacae SZ93 deficient in ompC by CLSI method; format: functional
Citrobacter freundii [15] = test: Antimicrobial activity against Citrobacter freundii SZ62 expressing IMP-4, TEM-1, CMY-2, qnrS1, aac(6')-Ib-cr by CLSI method; format: functional
Escherichia coli [16] = test: Antimicrobial activity against carbapenem-resistant Escherichia coli PU102 deficient in TEM-1, CTX-M-14, CMY-2, aac(6')-Ib, ompC DEc, ompF by CLSI method; format: functional
Klebsiella pneumoniae [17] = test: Antimicrobial activity against Klebsiella pneumoniae FZ49T expressing IMP-8, TEM-1, CTX-M-14, qnrB2, aac(6')-Ib by CLSI method; format: functional
Klebsiella pneumoniae [18] = test: Antimicrobial activity against Klebsiella pneumoniae GZ64T expressing IMP-4 by CLSI method; format: functional
Klebsiella pneumoniae [19] = test: Antimicrobial activity against carbapenem-resistant Klebsiella pneumoniae FZ47 deficient in IMP-8, TEM-1, SHV-11, CTX-M-14, qnrB2, aac(6')-Ib, ompK35/36 by CLSI method; format: functional
Klebsiella pneumoniae [20] = test: Antimicrobial activity against Klebsiella pneumoniae WH76 expressing IMP-4, TEM-1, SHV-14, CTX-M-3, qnrS1 by CLSI method; format: functional
Klebsiella pneumoniae [21] = test: Antimicrobial activity against Klebsiella pneumoniae ZJ99T expressing KPC-2, CTX-M-3, qnrS1 by CLSI method; format: functional
Enterobacter cloacae [22] = test: Antimicrobial activity against carbapenem-resistant Enterobacter cloacae WH103 deficient in IMP-4, TEM-1, CTX-M-3, qnrS1, ompC by CLSI method; format: functional
Klebsiella pneumoniae [23] = test: Antimicrobial activity against Klebsiella pneumoniae WH97 expressing SHV-33, aac(6')-Ib, ompK35 DE by CLSI method; format: functional
Escherichia coli [24] = test: Antimicrobial activity against carbapenem-resistant Escherichia coli PU43 deficient in TEM-1, CTX-M-14, aac(6')-Ib, ompC/F by CLSI method; format: functional
Klebsiella pneumoniae [25] = test: Antimicrobial activity against carbapenem-resistant Klebsiella pneumoniae ZJ70 deficient in KPC-2, SHV-11, CTX-M-14, ompK35/36 by CLSI method; format: functional
Klebsiella pneumoniae [26] = test: Antimicrobial activity against carbapenem-resistant Klebsiella pneumoniae GZ83 deficient in SHV-11, CTX-M-14, ompK35/36 by CLSI method; format: functional
Enterobacter cloacae [27] = test: Antimicrobial activity against carbapenem-resistant Enterobacter cloacae GX56 deficient in ompC and expressing low levels of ompF DE by CLSI method; format: functional
Klebsiella pneumoniae [28] = test: Antimicrobial activity against carbapenem-resistant Klebsiella pneumoniae PU4 deficient in SHV-1, DHA-1, ompK35/36 by CLSI method; format: functional
Klebsiella pneumoniae [29] = test: Antimicrobial activity against carbapenem-resistant Klebsiella pneumoniae GZ66 deficient in SHV-11, DHA-1, ompK35/36 by CLSI method; format: functional
Klebsiella pneumoniae [30] = test: Antimicrobial activity against carbapenem-resistant Klebsiella pneumoniae ZJ69 deficient in SHV-28, ompK35/36 by CLSI method; format: functional

Measured: MIC

CN(C)c1cc(NC(=O)CNC(C)(C)C)c(O)c2c1C[C@H]1C[C@H]3[C@H](N(C)C)C(O)=C(C(N)=O)C(=O)[C@@]3(O)C(O)=C1C2=O [TIGECYCLINE]
0.5 µg/mL: Klebsiella pneumoniae [2] | Klebsiella pneumoniae [9] | Klebsiella pneumoniae [20] | Klebsiella pneumoniae [23] | Klebsiella pneumoniae [26] | Klebsiella pneumoniae [29] | Klebsiella pneumoniae [30]
2 µg/mL: Klebsiella pneumoniae [5]
0.06 µg/mL: Klebsiella pneumoniae [17] | Klebsiella pneumoniae [18]
0.25 µg/mL: Klebsiella pneumoniae [10] | Escherichia coli [16] | Klebsiella pneumoniae [21] | Escherichia coli [24] | Klebsiella pneumoniae [25]
4 µg/mL: Enterobacter cloacae [27] | Klebsiella pneumoniae [28]
0.13 µg/mL: Klebsiella pneumoniae [1] | Citrobacter freundii [12] | Escherichia coli [13]
0.125 µg/mL: Escherichia coli [7] | Klebsiella pneumoniae [8] | Escherichia coli [11]
1 µg/mL: all other assays above
